Test results reported in patent US20110136141A1, “PEPTIDE REAGENTS AND METHOD FOR INHIBITING AUTOANTIBODY ANTIGEN BINDING” (Abbott Laboratories, priority 2009, published 2011).
The star is where a group is joined. Biotin = O=C1N[C@H]2[C@H](CS[C@H]2CCCCC(=O)*)N1

Tested on: endogenous antibodies to cardiac troponin-I (binding to recombinant human cardiac troponin-I)
Assay: Inhibition of anti-cTnI autoantibody binding to cardiac troponin-I (microplate chemiluminescent immunoassay)
Protocol: Inhibitor working solutions: The peptides listed in Table 12 (obtained from Sigma-Genosys, PEPscreen custom library) were diluted in AxSYM® Troponin-I ADV Preincubation Diluent to give solutions ranging from 240 nmol/mL to 0 nmol/mL. An equimolar mixture of the peptides listed in Table 12 was prepared and diluted to give solutions ranging from 240 nmol/mL to 0 nmol/mL/.
Microplate preparation: Recombinant human cardiac troponin-I (cTnI, BiosPacific, Emeryville, Calif.) was coated on white high-binding flat-bottom 96-well polystyrene microplates (Costar) in phosphate buffer (100 μL, 0.2 M, pH 8, 4 μg/mL) at 38° C., for 1 h, then overcoated sequentially with bovine serum albumin and 2% wt/v sucrose in PBS.
Chemiluminescent detection conjugate: A murine anti-human IgG (subtype IgG2b, kappa;) was labeled with a chemiluminescent acridinium-9-carboxamide. This antibody recognized all human IgG subtypes while having no significant reactivity toward human IgM or IgA, or rabbit, sheep or goat IgG. […]
Chemiluminescent detection: The microplate was loaded into a Mithras microplate reader (Berthold Technologies Inc, Oak Ridge, Tenn.) equilibrated at 28° C. The chemiluminescence signal from each well was recorded for 2 s after the sequential addition of ARCHITECT® Pre-Trigger solution (100 μL) and ARCHITECT® Trigger solution (100 μL).

ratio of signal to the low control (S/LC): inhibition of the binding of endogenous antibodies to the cTnI antigen on the microplate (Example 1, FIG. 11, peptides of Table 12 ([Btn] amino-terminus), 240 to 0 nmol/mL, human serum sample mixed 1:1, overnight): greatest inhibition
ratio of signal to the low control (S/LC): inhibition of the binding of endogenous antibodies to the cTnI antigen on the microplate (Example 2, FIG. 12, peptides of Table 13 ([Ac] amino-terminus), procedure of Example 1): greatest inhibition
Substance: #5 (Biotin-ALSGMEGRKKKFES-NH2; SMILES CSCC[C@H](NC(=O)CNC(=O)[C@H](CO)NC(=O)[C@H](CC(C)C)NC(=O)[C@H](C)NC(=O)CCCC[C@@H]1SC[C@@H]2NC(=O)N[C@@H]21)C(=O)N[C@@H](CCC(=O)O)C(=O)NCC(=O)N[C@@H](CCCNC(=N)N)C(=O)N[C@@H](CCCCN)C(=O)N[C@@H](CCCCN)C(=O)N[C@@H](CCCCN)C(=O)N[C@@H](Cc1ccccc1)C(=O)N[C@@H](CCC(=O)O)C(=O)N[C@@H](CO)C(N)=O)
